Three molecules from patent US6482855B2, “Diamine alkylene diacetic or triacetic acid derivatives, preparation method, use in cosmetic and pharmaceutical compositions and compositions containing them” (L'Oreal S.A., priority 1997, dated 2002) can be followed below.

One data set deals with V79 cells. The experiment in a line: Protection of V79 cells against the toxicity of H2O2 (neutral red technique). The settings on record: for IC50: Cricetulus griseus, 1 hour contact with compound, then 30 μM H2O2 for one hour, cell number after 72 hours by neutral red, read-out: Result (concentration inducing 50% protection), IC50. The data set is classed as cell-based. The method, then:
The activity of the compounds was evaluated by their ability to protect V79 cells against the toxicity of H2O2, a technique conventionally used to evaluate the effectiveness of antioxidants or iron-chelating agents.
V79 cells were subcultured in DMEM (Dulbecco Modified Essential Medium) medium supplemented with 10% of foetal calf serum, streptomycin, penicillin and glutamine at 37° C. under an atmosphere of 95% air+5% CO2.
The cells were subsequently seeded at a density of 5×10^3/ml in 96-well plates.
After 24 hours, the cells were rinsed and then incubated with the test compounds at different concentrations.
After a contact time of 1 hour, 30 μM of H2O2 were added and incubated at 37° C. for a further one hour.
The cells were subsequently rinsed and then again brought into contact with the supplemented medium described above.
After 72 hours, the number of cells was evaluated in each well by using the neutral red technique.
The protective effect is assessed by the IC50, which measures the concentration which induces 50% protection against cytotoxicity in comparison with the wells treated only with H2O2.

A short description of data set [1]: Solubility limit noted in the V79 protection test. The format is physicochemical. As to conditions: beyond 1 mM.

Counter-ions that a name gives are not always drawn. Bounds are passed on as bounds.

With `COc1cc(CN(CCN(CC(=O)O)Cc2cc(OC)c(OC)c(OC)c2)CC(=O)O)cc(OC)c1OC` [Comparative 1, the dihydrochloride of N,N′-bis(3,4,5-trimethoxybenzyl)ethylenediamine-N,N′-diacetic acid], the “protection against H2O2 cytotoxicity” value in the data set with V79 cells (compound at 10 mM, 30 μM H2O2) was 25% protection only at 10 mM. `COC(=O)CN(CCN(CC(=O)OC)Cc1cc(OC)c(OC)c(OC)c1)Cc1cc(OC)c(OC)c(OC)c1` [Comparative 2]: the IC50 in the data set with V79 cells was over 1000 µM. For the same molecule, the “solubility of compound in the test” value in data set [1] is “insoluble beyond this point)”. On to `COc1cc(CN(CCN(CC(=O)OCOC(C)=O)Cc2cc(OC)c(OC)c(OC)c2)CC(=O)OCOC(C)=O)cc(OC)c1OC` [Example 1, bis(acetoxymethyl) [N,N′-bis(3,4,5-trimethoxybenzyl)]-ethylenediamine-N,N′-diacetate], for which the IC50 with V79 cells came out at 10 µM.
